Results on two molecules are retold here after publication PMC4769319, “Cohesin Releases DNA through Asymmetric ATPase-Driven Ring Opening” (Molecular Cell, 2016).

This assay deals with T1, Smc1/Smc3 heterodimer with Scc1-C (cohesin) (Saccharomyces cerevisiae, UniProt P32908+P47037, P32908:L1129V, form not given).
T1 construct: N-terminal tags; Sf9 insect cells; fluorescently labelled for MST; with Sister chromatid cohesion protein 1
T1 sequence (P32908 1-1225 L1129V): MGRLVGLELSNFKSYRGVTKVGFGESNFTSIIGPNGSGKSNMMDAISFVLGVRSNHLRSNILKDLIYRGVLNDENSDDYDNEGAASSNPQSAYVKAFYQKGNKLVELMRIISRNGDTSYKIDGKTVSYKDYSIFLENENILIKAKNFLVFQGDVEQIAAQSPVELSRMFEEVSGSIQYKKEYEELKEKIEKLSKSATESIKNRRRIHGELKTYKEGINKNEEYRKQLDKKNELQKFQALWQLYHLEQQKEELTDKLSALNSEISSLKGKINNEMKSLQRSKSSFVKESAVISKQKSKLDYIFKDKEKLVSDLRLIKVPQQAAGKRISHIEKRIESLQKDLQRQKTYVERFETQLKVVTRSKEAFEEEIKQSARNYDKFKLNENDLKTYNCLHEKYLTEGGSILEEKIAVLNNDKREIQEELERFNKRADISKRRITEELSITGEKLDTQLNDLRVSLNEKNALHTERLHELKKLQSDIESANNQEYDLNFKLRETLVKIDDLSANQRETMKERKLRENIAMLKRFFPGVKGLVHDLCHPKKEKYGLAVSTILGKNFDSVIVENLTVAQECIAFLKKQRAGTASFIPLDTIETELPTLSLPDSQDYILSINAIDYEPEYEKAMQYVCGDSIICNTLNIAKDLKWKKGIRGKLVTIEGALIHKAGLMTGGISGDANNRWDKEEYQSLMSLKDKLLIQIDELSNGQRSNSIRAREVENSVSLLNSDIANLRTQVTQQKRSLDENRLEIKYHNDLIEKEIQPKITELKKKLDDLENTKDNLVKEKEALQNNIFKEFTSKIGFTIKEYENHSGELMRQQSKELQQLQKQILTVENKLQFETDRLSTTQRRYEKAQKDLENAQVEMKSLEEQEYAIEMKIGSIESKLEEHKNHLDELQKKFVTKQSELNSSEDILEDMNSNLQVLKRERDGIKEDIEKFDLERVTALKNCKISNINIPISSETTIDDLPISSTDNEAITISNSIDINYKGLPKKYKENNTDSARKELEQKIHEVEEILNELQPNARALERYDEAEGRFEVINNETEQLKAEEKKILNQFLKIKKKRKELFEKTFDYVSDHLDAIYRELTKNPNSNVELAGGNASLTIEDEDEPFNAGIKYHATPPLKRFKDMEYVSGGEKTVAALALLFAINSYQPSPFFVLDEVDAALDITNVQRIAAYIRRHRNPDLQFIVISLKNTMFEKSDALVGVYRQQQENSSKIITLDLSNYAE
T1 sequence (P47037 1-1230): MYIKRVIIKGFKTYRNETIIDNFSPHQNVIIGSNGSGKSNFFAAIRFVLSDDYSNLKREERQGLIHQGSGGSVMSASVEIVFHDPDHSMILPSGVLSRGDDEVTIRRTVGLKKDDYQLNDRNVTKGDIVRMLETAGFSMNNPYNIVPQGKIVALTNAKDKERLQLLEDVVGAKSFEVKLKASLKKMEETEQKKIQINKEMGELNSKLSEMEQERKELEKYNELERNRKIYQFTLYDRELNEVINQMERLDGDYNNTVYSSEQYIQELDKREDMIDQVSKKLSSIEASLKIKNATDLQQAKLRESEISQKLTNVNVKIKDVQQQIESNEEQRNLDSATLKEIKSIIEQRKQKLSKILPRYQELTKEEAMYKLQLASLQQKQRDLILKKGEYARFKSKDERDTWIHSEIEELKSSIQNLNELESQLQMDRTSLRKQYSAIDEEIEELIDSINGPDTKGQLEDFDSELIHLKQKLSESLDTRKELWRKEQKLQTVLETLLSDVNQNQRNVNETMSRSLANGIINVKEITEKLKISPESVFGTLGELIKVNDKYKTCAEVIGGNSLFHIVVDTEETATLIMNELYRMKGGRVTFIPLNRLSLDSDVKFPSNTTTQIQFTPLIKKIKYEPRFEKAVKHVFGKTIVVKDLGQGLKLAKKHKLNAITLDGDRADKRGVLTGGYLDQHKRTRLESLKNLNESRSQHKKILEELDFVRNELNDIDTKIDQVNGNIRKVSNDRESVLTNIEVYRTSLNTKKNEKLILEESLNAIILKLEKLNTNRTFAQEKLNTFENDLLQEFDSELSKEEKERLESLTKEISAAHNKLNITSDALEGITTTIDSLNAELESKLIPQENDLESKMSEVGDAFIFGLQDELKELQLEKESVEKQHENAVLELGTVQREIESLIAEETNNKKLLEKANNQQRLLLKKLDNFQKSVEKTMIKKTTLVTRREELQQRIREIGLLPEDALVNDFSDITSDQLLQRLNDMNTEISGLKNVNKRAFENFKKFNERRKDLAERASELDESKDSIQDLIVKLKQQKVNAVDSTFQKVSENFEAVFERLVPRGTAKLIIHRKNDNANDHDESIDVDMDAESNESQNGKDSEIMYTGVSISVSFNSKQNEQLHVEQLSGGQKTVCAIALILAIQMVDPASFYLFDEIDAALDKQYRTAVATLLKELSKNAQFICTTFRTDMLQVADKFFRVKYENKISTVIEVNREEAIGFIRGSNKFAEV
T1 sequence (Q12158 1-566 partner): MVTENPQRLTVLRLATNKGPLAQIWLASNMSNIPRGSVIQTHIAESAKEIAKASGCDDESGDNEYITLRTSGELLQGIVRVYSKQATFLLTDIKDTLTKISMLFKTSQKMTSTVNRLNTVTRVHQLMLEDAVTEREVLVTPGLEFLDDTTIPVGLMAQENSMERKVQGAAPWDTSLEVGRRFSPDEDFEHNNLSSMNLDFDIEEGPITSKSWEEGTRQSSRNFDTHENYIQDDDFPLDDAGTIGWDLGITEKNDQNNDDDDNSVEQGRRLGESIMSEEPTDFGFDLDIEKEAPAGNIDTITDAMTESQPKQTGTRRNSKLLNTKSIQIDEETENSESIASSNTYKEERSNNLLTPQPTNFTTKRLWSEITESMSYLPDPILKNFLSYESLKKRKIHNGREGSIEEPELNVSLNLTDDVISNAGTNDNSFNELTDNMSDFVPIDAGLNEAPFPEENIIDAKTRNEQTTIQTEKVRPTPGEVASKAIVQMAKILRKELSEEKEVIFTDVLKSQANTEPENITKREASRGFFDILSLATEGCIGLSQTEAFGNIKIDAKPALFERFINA
The assay can be described thus: microscale thermophoresis. It counts as binding. The following applies: fluorescently labelled protein; Smc1 co-purified with Scc1-C, plus Smc3; read-out: affinity. The text has this: microscale thermophoresis on Smc1/Smc3 heterodimer with Scc1-C (cohesin) | Smc1 L1129V, D1164E and E1158Q mutants all had wild-type-like affinity to both ATP and ADP | wild-type and mutant cohesin complexes appear to have similar affinities to ADP

For `Nc1ncnc2c1ncn2[C@@H]1O[C@H](COP(=O)(O)OP(=O)(O)OP(=O)(O)O)[C@@H](O)[C@H]1O` [ATP], the Kd came out at 667 ± 211 µM. The value for `Nc1ncnc2c1ncn2[C@@H]1O[C@H](COP(=O)(O)OP(=O)(O)O)[C@@H](O)[C@H]1O` [ADP] was > 1000 µM.
